From ChEMBL document CHEMBL5653631, “A Potent and Selective ULK1 Inhibitor Suppresses Autophagy and Sensitizes Cancer Cells to Nutrient Stress” (iScience, 2018) come the findings set out here.

The target in assay [1] is Serine/threonine-protein kinase 17A (Homo sapiens, UniProt Q9UEE5). In words: Inhibition of human recombinant DRAK1.
Assay [2] has as its target Serine/threonine-protein kinase 33 (Homo sapiens) (UniProt Q9BYT3). Kind of assay: Inhibition of human recombinant STK33 at 40 nM related to control ULK1.
The target of assay [3] is Tyrosine-protein kinase FRK (Homo sapiens) (UniProt P42685). Kind of assay: Inhibition of human recombinant FRK at 500 nM in presence of ATP by radiometric assay relative to control.
Assay [4] has as its target Tyrosine-protein kinase JAK2 (Homo sapiens) (UniProt O60674). Kind of assay: Inhibition of human recombinant JAK2 at 500 nM related to control ULK1.
Assay [5] addresses T1, Testis-specific serine/threonine-protein kinase 4 (Homo sapiens) (UniProt Q6SA08).
T1 sequence (whole entry): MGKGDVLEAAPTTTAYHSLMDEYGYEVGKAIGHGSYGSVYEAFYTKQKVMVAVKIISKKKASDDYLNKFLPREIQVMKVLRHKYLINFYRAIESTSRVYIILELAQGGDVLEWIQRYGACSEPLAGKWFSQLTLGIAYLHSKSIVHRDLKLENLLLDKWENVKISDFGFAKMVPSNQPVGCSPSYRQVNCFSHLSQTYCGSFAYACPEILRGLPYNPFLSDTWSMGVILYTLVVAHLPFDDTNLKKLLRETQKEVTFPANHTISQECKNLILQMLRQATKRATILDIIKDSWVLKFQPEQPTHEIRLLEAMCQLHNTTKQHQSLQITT
Kind of assay: Inhibition of human recombinant TSSK4 at 500 nM related to control ULK1.

For assay [6], the target named is T2, Ephrin type-B receptor 1 (Homo sapiens) (UniProt P54762).
T2 sequence (whole entry): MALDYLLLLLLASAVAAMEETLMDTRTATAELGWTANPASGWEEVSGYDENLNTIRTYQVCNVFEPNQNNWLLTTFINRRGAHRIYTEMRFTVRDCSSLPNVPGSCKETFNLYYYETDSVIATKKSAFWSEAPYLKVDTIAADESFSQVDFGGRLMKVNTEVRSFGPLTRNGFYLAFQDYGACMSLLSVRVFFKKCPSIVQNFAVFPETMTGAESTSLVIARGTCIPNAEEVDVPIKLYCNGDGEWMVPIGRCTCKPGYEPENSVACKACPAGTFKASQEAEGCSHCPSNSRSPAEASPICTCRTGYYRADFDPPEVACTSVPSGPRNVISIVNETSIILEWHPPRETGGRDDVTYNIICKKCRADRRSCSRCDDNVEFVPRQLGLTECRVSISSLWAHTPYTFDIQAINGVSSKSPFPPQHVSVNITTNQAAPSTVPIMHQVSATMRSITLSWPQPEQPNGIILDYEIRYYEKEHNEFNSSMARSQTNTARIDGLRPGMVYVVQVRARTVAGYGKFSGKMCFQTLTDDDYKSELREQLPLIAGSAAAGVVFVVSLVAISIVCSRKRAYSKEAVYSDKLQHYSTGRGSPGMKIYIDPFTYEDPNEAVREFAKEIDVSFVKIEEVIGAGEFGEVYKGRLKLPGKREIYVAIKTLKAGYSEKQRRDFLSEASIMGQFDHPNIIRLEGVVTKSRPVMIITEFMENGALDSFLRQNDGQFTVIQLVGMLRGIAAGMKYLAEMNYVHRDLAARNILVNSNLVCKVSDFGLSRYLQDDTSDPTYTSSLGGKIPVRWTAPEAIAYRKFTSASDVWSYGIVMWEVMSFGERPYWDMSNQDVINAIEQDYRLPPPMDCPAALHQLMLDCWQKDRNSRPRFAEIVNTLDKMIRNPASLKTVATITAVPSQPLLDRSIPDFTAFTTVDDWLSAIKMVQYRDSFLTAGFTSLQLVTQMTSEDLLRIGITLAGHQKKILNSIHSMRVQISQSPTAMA
Kind of assay: Inhibition of human recombinant EphB1 at 15 nM related to control ULK1.

Assay [7] deals with T3, Muscle, skeletal receptor tyrosine-protein kinase (Homo sapiens) (UniProt O15146).
T3 sequence (whole entry): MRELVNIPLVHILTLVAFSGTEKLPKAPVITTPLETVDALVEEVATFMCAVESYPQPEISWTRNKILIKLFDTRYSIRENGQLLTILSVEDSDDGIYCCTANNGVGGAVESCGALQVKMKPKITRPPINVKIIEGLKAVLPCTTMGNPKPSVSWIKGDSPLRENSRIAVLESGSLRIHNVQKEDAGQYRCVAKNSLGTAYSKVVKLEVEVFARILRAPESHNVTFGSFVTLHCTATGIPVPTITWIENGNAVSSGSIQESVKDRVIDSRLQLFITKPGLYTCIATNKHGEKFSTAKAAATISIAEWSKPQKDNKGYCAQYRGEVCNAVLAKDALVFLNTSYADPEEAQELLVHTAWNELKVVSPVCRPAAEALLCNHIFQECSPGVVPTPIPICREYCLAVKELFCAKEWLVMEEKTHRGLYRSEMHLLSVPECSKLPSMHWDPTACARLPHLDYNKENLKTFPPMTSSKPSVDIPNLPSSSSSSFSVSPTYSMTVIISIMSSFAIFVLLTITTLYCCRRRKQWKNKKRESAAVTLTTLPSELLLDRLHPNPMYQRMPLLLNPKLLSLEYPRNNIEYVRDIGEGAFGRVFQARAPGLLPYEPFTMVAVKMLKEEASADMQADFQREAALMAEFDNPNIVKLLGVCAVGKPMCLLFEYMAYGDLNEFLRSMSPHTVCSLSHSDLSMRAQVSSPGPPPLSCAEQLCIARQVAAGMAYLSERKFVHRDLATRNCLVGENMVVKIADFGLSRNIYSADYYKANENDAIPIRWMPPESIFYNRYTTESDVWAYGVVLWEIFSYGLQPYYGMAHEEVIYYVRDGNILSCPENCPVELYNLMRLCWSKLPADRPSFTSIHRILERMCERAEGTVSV
Kind of assay: Inhibition of human recombinant MUSK at 15 nM related to control ULK1.

Tyrosine-protein kinase JAK2 (Homo sapiens), sequence (O60674 whole entry): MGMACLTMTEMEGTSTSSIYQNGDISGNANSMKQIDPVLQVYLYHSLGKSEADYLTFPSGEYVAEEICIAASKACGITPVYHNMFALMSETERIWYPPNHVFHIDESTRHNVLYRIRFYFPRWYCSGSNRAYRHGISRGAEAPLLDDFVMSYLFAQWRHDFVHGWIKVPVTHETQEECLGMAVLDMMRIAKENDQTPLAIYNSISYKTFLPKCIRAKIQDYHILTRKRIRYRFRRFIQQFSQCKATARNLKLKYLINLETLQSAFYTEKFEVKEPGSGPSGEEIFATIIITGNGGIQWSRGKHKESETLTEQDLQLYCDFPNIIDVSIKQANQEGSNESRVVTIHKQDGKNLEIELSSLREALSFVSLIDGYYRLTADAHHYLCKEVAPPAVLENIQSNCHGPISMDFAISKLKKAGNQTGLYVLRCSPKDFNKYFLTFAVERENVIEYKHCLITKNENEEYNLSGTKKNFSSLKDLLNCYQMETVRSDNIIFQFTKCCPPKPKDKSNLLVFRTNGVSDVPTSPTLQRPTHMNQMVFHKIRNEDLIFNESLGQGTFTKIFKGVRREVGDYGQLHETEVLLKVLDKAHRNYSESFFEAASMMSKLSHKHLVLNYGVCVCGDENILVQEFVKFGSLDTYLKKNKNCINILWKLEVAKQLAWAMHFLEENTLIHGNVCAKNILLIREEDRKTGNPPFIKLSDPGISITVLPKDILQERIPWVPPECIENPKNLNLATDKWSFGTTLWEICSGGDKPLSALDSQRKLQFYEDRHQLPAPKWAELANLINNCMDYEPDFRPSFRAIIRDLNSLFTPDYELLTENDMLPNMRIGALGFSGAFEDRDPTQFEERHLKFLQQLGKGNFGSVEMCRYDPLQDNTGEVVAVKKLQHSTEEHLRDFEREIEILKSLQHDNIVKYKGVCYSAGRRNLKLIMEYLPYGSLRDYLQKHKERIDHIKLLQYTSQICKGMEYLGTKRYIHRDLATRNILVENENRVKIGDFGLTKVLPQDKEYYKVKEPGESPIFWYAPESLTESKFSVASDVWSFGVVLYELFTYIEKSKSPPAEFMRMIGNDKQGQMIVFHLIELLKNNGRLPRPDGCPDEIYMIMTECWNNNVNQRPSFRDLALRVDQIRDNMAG
Serine/threonine-protein kinase 17A, sequence (Q9UEE5 whole entry): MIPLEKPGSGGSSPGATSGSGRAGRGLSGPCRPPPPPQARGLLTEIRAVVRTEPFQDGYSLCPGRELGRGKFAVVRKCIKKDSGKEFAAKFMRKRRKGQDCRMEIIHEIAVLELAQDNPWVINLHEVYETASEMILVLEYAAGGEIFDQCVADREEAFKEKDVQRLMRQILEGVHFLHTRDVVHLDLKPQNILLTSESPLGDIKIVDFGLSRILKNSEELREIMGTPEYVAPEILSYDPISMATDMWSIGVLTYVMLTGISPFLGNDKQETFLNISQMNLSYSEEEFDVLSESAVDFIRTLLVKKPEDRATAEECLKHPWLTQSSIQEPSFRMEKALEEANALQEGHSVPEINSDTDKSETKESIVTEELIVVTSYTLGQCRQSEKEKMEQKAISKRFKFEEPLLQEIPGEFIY
Serine/threonine-protein kinase 33 (Homo sapiens), sequence (Q9BYT3 whole entry, looked up): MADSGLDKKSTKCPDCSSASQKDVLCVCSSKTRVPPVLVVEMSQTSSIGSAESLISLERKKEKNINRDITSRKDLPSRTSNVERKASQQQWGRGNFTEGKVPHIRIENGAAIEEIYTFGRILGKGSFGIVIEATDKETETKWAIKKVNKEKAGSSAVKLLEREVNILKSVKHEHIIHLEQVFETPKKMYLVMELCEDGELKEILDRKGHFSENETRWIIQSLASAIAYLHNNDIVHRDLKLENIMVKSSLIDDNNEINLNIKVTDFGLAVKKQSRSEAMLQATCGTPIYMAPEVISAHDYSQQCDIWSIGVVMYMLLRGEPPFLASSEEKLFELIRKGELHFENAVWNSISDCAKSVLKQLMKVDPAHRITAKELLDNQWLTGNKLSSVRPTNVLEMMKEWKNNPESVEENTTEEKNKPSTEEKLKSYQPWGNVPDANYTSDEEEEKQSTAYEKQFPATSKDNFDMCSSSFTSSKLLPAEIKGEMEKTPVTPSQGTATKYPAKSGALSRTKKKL
Tyrosine-protein kinase FRK (Homo sapiens), sequence (P42685 whole entry): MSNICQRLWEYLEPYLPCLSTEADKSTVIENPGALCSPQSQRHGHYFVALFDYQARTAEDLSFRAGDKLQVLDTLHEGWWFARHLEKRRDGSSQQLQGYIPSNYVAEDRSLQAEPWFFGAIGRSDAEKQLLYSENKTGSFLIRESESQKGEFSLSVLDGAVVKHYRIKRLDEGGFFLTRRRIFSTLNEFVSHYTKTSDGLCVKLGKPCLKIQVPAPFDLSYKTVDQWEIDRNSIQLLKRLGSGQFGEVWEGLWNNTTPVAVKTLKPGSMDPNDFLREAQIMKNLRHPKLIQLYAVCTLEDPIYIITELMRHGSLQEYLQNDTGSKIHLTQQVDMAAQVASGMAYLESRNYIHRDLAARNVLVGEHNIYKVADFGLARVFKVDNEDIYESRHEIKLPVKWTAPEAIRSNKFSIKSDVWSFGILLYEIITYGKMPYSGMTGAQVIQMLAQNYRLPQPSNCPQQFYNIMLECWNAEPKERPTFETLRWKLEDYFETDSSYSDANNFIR

Broadly, the IC50 is the concentration that inhibits the measured activity by half. For `O=C(N[C@@H](C1CC1)C(F)(F)F)c1cc(-c2cnn3cc(-c4ccc(F)cc4)cnc23)cs1`, the IC50 in assay [1] amounted to 14 nM. Also, the fold change (FC) in assay [2] stood at 0.26.
As usually defined, the inhibition is the drop in the measured response relative to a control, in per cent. For the compound `CNC(=O)c1ccccc1Oc1nc(Nc2cc(OC)c(OC)c(OC)c2)ncc1Br`, the inhibition in assay [3] was 9%. Besides, the figures for the fold change (FC) in assay [4] and in assay [5] were 1.05 and 0, respectively.
Turning to `CC(C)[C@H](NC(=O)c1cc(-c2cnn3cc(-c4ccc(OCCN5CCCCC5)cc4)cnc23)cs1)C(F)(F)F`, the fold change (FC) came to 0.14 in assay [6] and 0 in assay [7].
